Assay results taken from patent publication US7910599B2 (priority 2005, dated 2011).
Entries after “also recorded” stand apart in the source; their conditions may differ.

Legend:
rats = test: Rats kept continually on antagonist in the food, alcohol drinking; format: in vivo, rat; conditions: large doses in the food, continual presence; less reduction than selective extinction with naloxone
alcoholics = conditions: cited from earlier work
[1] = test system: patients suffering from binge eating; conditions: 50 mg once, twice or 3 times daily; cited from earlier work
humans [2] = conditions: cited from earlier work
[3] = continual administration; cited from earlier work
humans [4] = conditions: highly palatable versus less pleasant tasting foods; cited from earlier work
Male Wistar rats = test: Selective extinction in alcohol-experienced rats: naloxone before alcohol access, saccharin access without injection; format: in vivo, rat
Protocol: The example included here is a prior preclinical experiment in which the alternative opioidergically-reinforced behavior was saccharin drinking. Alcohol experienced rats had continual access to food and water. Alcohol solution was available for only an hour a day for 2 to 4 days. On the next day or two, saccharin solution instead was available. Naloxone (or saline for the control group) was injected prior to the alcohol session.
Male Wistar rats (n=26) were individually housed with daily access to 10% ethanol, with food and water always present. After 2 months prior experience, the rats were switched to having 2-4 alcohol-access days interspersed with 1 or 2 days when saccharin solution (1 g/l) was available for 1 hr. […] No injections were made prior to saccharin access.

humans [5] = conditions: acute study; cited from earlier work
[6] = subcutaneous naloxone prior to alcohol access, dose reduced from 10.000 to 0.005 mg/kg

Compound | alcohol drinking (rats) | efficacy in alcoholism when given during abstinence (alcoholics; naltrexone given during abstinence) | efficacy in alcoholism when paired with alcohol drinking (alcoholics; naltrexone paired with drinking (extinction method)) | maximum days per week (naltrexone and drinking) reported by complying patients (alcoholics; three-year follow-up, mean ± SEM) [days per week] | treatment of binge eating versus placebo [1] | preference for saccharin (humans [2]) | side-effects [3] | food intake (humans [4]) | saccharin drinking in the same animals (Male Wistar rats; first three weeks) | alcohol drinking (Male Wistar rats; first three weeks, naloxone doses in the range previously found effective) | alcohol drinking in comparison with saline controls and own prior levels (Male Wistar rats; subcutaneous naloxone prior to alcohol access (10% ethanol), dose progressively reduced from 10.000 to 0.005 mg/kg) | time alcohol drinking continued to be significantly reduced (Male Wistar rats; [6]) [weeks] | time alcohol drinking was reduced to nearly zero for most rats (Male Wistar rats; [6]) [weeks] | size of an eating binge (humans [5])
O=C1CC[C@@]2(O)[C@H]3Cc4ccc(O)c5c4[C@@]2(CCN3CC2CC2)[C@H]1O5 [naltrexone] | significantly lowered | tended to be worse than placebo | effective | 1.5±0.4 | not significantly better than placebo | reduces | liver toxicity | – | – | – | – | – | – | –
C=C1CC[C@@]2(O)[C@H]3Cc4ccc(O)c5c4[C@@]2(CCN3CC2CC2)[C@H]1O5 [nalmefene] | significantly lowered | – | – | – | – | – | – | suppresses intake of highly palatable foods but not that of less pleasant tasting ones | – | – | – | – | – | –
C=CCN1CC[C@]23c4c5ccc(O)c4O[C@H]2C(=O)CC[C@@]3(O)[C@H]1C5 [naloxone] | – | – | – | – | – | – | – | – | significantly increased | practically abolished | strongly reduced; also recorded: significantly reduced | 8 | 6 | significantly reduced
